US20020137929A1, “1 - (3-heterocyclylphenyl) isothiourea, -isourea, -guanidine and -amidine herbicidal agents” (Intellectual Property Department, BASF Aktiengesellschaft, priority 1998, published 2002)

Legend:
[1] = system: IPOHE (Morningglory, Ivyleaf); test: Postemergence herbicidal evaluation; format: in vivo, Ipomoea hederacea
How it was run: (§1)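 Compound is applied as a foliar spray to seedlings about two weeks old, formulated in equal parts acetone and water with 0.5% TWEEN 20 and delivered at 40 psi to give about 0.0156–0.500 kg per hectare. Injury is rated visually 0–9 after four to five weeks.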

AMBEL (Ragweed, Common) [2] = test: Preemergence herbicidal evaluation; format: in vivo, Ambrosia artemisifolia; conditions: rated 4-5 weeks after treatment
How it was run: (§2)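 Greenhouse preemergence test: seed-soil mix sown on ~1 inch soil; aqueous acetone spray at equivalent of ~0.0156–0.500 kg/ha; greenhouse-held and watered; scored 0–9 visually at 4–5 weeks.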

ABUTH (Velvetleaf) = test: Preemergence herbicidal evaluation; format: in vivo, Abutilon theophrasti; conditions: rated 4-5 weeks after treatment
How it was run: as §2

ZEAMX (Corn, Field) = test: Postemergence herbicidal evaluation; format: in vivo, Zea mays
How it was run: as §1

SETVI (Foxtail, Green) = test: Preemergence herbicidal evaluation; format: in vivo, Setaria viridis; conditions: rated 4-5 weeks after treatment
How it was run: as §2

[3] = system: ECHORC (Watergrass (Calif.)); test: Postemergence weed control under flooded paddy conditions; format: in vivo, Echinochloa oryzoides; conditions: postemergence weeds
How it was run: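 With weeds 3 to 5 cm tall and rice at the 1.5 to 2.5 leaf stage, containers were flooded and water held 1.5 to 3 cm above soil. Compounds in 50/50 v/v aqueous/acetone went into the flood water at about 0.0313 to 0.500 kg/ha a.i. Effects were visually rated 0–9 against controls after three to four weeks in the greenhouse.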

ECHCG (Barnyardgrass) = test: Preemergence herbicidal evaluation; format: in vivo, Echinochloa crus-galli; conditions: rated 4-5 weeks after treatment
How it was run: as §2

AMBEL (Ragweed, Common) [4] = test: Postemergence herbicidal evaluation; format: in vivo, Ambrosia artemisifolia
How it was run: as §1

CYPSE (Flatsedge) = test: Preemergence weed control under flooded paddy conditions; format: in vivo, Cyperus serotinus; conditions: rated 3-4 weeks after treatment
How it was run: (§3)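 Seeds or propagules sown in top 0.5 cm of silt loam soil, flooded 1.5 to 3 cm above surface throughout. Compound in 50/50 v/v aqueous/acetone pipetted into flood water at about 0.0313 to 0.500 kg/ha. Visual 0-9 rating versus control after three to four weeks in greenhouse.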

GALAP (Galium) = test: Preemergence herbicidal evaluation; format: in vivo, Galium aparine; conditions: rated 4-5 weeks after treatment
How it was run: as §2

[5] = system: GLXMAW (Soybean, Williams); test: Preemergence herbicidal evaluation; format: in vivo, Glycine max, (L.) Merr. cv Williams; conditions: rated 4-5 weeks after treatment
How it was run: as §2

[6] = system: SAGPY (Arrowhead (Pygmaea)); test: Preemergence weed control under flooded paddy conditions; format: in vivo, Sagittaria pygmaea; conditions: rated 3-4 weeks after treatment
How it was run: as §3

CASOB (Sicklepod) = test: Preemergence herbicidal evaluation; format: in vivo, Cassia obtusifolia; conditions: rated 4-5 weeks after treatment
How it was run: as §2

[7] = system: GLXMAW (Soybean, Williams); test: Postemergence herbicidal evaluation; format: in vivo, Glycine max, (L.) Merr. cv Williams
How it was run: as §1

C=CCN1C(=O)C(CC(=O)O)SC1=Nc1cc(-n2c(=O)cc(C(F)(F)F)n(C)c2=O)c(F)cc1Cl (stereo not drawn) [Compound 62, 3-Allyl-2-{{2-chloro-5-[3,6-dihydro-3-methyl-2,6-dioxo-4-(trifluoromethyl)-1(2H)-pyrimidinyl]-4-fluorophenyl}imino}-4-oxo-5-thiazolidineacetic acid]
8.0: Postemergence herbicidal rating ZEAMX (ZEAMX (Corn, Field); Rate 0.0315 kg/ha) | Postemergence herbicidal rating ZEAMX (ZEAMX (Corn, Field); Rate 0.0630 kg/ha)
8.5: Postemergence herbicidal rating GLXMAW ([7]; Rate 0.0630 kg/ha)
9.0: Postemergence herbicidal rating IPOHE ([1]; Rate 0.0158 kg/ha) | Postemergence herbicidal rating IPOHE ([1]; Rate 0.0315 kg/ha) | Postemergence herbicidal rating IPOHE ([1]; Rate 0.0630 kg/ha) | Preemergence herbicidal rating AMBEL (AMBEL (Ragweed, Common) [2]; rate 0.1250 kg/ha) | Preemergence herbicidal rating ABUTH (ABUTH (Velvetleaf); rate 0.0625 kg/ha) | Preemergence herbicidal rating ABUTH (ABUTH (Velvetleaf); rate 0.1250 kg/ha) | Preemergence herbicidal rating ABUTH (ABUTH (Velvetleaf); rate 0.2500 kg/ha) | Preemergence herbicidal rating SETVI (SETVI (Foxtail, Green); rate 0.1250 kg/ha) | Preemergence herbicidal rating SETVI (SETVI (Foxtail, Green); rate 0.2500 kg/ha) | Postemergence herbicidal rating AMBEL (AMBEL (Ragweed, Common) [4]; Rate 0.0158 kg/ha) | Postemergence herbicidal rating AMBEL (AMBEL (Ragweed, Common) [4]; Rate 0.0630 kg/ha) | Preemergence herbicidal rating GALAP (GALAP (Galium); rate 0.2500 kg/ha)
4.0: Preemergence herbicidal rating ABUTH (ABUTH (Velvetleaf); rate 0.0156 kg/ha)
7.0: Preemergence herbicidal rating AMBEL (AMBEL (Ragweed, Common) [2]; rate 0.0625 kg/ha) | Preemergence herbicidal rating AMBEL (AMBEL (Ragweed, Common) [2]; rate 0.2500 kg/ha) | Preemergence herbicidal rating ABUTH (ABUTH (Velvetleaf); rate 0.0313 kg/ha) | Preemergence herbicidal rating ECHCG (ECHCG (Barnyardgrass); rate 0.2500 kg/ha) | Postemergence herbicidal rating AMBEL (AMBEL (Ragweed, Common) [4]; Rate 0.0315 kg/ha) | Preemergence herbicidal rating GLXMAW ([5]; rate 0.2500 kg/ha)
3.0: Preemergence herbicidal rating ECHCG (ECHCG (Barnyardgrass); rate 0.1250 kg/ha) | SAGPY herbicidal effect rating ([6]; 0.1250 kg/ha)
1.0: Preemergence herbicidal rating ECHCG (ECHCG (Barnyardgrass); rate 0.0625 kg/ha) | Preemergence herbicidal rating GLXMAW ([5]; rate 0.0625 kg/ha) | Preemergence herbicidal rating CASOB (CASOB (Sicklepod); rate 0.0625 kg/ha) | Preemergence herbicidal rating CASOB (CASOB (Sicklepod); rate 0.1250 kg/ha) | Preemergence herbicidal rating CASOB (CASOB (Sicklepod); rate 0.2500 kg/ha)
7.5: Postemergence herbicidal rating ZEAMX (ZEAMX (Corn, Field); Rate 0.0158 kg/ha) | Postemergence herbicidal rating GLXMAW ([7]; Rate 0.0158 kg/ha) | Postemergence herbicidal rating GLXMAW ([7]; Rate 0.0315 kg/ha)
6.0: Preemergence herbicidal rating SETVI (SETVI (Foxtail, Green); rate 0.0625 kg/ha) | Preemergence herbicidal rating GALAP (GALAP (Galium); rate 0.1250 kg/ha) | SAGPY herbicidal effect rating ([6]; 0.2500 kg/ha)
5.0: Preemergence herbicidal rating AMBEL (AMBEL (Ragweed, Common) [2]; rate 0.0313 kg/ha) | Herbicidal rating ECHORC ([3]; Rate 0.2500 kg/ha, rated 3 to 4 weeks after treatment)
2.0: Preemergence herbicidal rating AMBEL (AMBEL (Ragweed, Common) [2]; rate 0.0156 kg/ha) | Herbicidal rating ECHORC ([3]; Rate 0.1250 kg/ha, rated 3 to 4 weeks after treatment) | Preemergence herbicidal rating GLXMAW ([5]; rate 0.1250 kg/ha)
0.0: Preemergence herbicidal rating SETVI (SETVI (Foxtail, Green); rate 0.0156 kg/ha) | Preemergence herbicidal rating SETVI (SETVI (Foxtail, Green); rate 0.0313 kg/ha) | Herbicidal rating ECHORC ([3]; Rate 0.0313 kg/ha, rated 3 to 4 weeks after treatment) | Herbicidal rating ECHORC ([3]; Rate 0.0625 kg/ha, rated 3 to 4 weeks after treatment) | Preemergence herbicidal rating ECHCG (ECHCG (Barnyardgrass); rate 0.0156 kg/ha) | Preemergence herbicidal rating ECHCG (ECHCG (Barnyardgrass); rate 0.0313 kg/ha) | CYPSE herbicidal effect rating (CYPSE (Flatsedge); 0.0313 kg/ha) | CYPSE herbicidal effect rating (CYPSE (Flatsedge); 0.0625 kg/ha) | CYPSE herbicidal effect rating (CYPSE (Flatsedge); 0.1250 kg/ha) | CYPSE herbicidal effect rating (CYPSE (Flatsedge); 0.2500 kg/ha) | Preemergence herbicidal rating GALAP (GALAP (Galium); rate 0.0156 kg/ha) | Preemergence herbicidal rating GALAP (GALAP (Galium); rate 0.0313 kg/ha) | Preemergence herbicidal rating GALAP (GALAP (Galium); rate 0.0625 kg/ha) | Preemergence herbicidal rating GLXMAW ([5]; rate 0.0156 kg/ha) | Preemergence herbicidal rating GLXMAW ([5]; rate 0.0313 kg/ha) | SAGPY herbicidal effect rating ([6]; 0.0313 kg/ha) | SAGPY herbicidal effect rating ([6]; 0.0625 kg/ha) | Preemergence herbicidal rating CASOB (CASOB (Sicklepod); rate 0.0156 kg/ha) | Preemergence herbicidal rating CASOB (CASOB (Sicklepod); rate 0.0313 kg/ha)

CCOC(=O)CN1C(=O)C(CC(=O)O)O/C1=N/c1cc(-n2c(=O)cc(C(F)(F)F)n(C)c2=O)c(F)cc1Cl (stereo not drawn) [Compound 41, 2-{{2-Chloro-5-[3,6-dihydro-3-methyl-2,6-dioxo-4-(trifluoromethyl)-1(2H)-pyrimidinyl]-4-fluoro-phenyl}imino}-4-oxo-3,5-oxazolidinediacetic acid, 3-ethyl ester]
7.5: Postemergence herbicidal rating ZEAMX (ZEAMX (Corn, Field); Rate 0.0630 kg/ha)
0.0: Preemergence herbicidal rating AMBEL (AMBEL (Ragweed, Common) [2]; rate 0.0156 kg/ha) | Preemergence herbicidal rating SETVI (SETVI (Foxtail, Green); rate 0.0156 kg/ha) | Preemergence herbicidal rating SETVI (SETVI (Foxtail, Green); rate 0.0313 kg/ha) | Preemergence herbicidal rating ECHCG (ECHCG (Barnyardgrass); rate 0.0156 kg/ha) | Preemergence herbicidal rating ECHCG (ECHCG (Barnyardgrass); rate 0.0313 kg/ha) | Preemergence herbicidal rating ECHCG (ECHCG (Barnyardgrass); rate 0.0625 kg/ha) | Preemergence herbicidal rating ECHCG (ECHCG (Barnyardgrass); rate 0.1250 kg/ha) | Herbicidal rating CYPSE (CYPSE (Flatsedge); 0.0313 kg/ha) | Herbicidal rating CYPSE (CYPSE (Flatsedge); 0.0625 kg/ha) | Preemergence herbicidal rating GALAP (GALAP (Galium); rate 0.0156 kg/ha) | Preemergence herbicidal rating GALAP (GALAP (Galium); rate 0.0625 kg/ha) | Preemergence herbicidal rating GALAP (GALAP (Galium); rate 0.1250 kg/ha) | Preemergence herbicidal rating GALAP (GALAP (Galium); rate 0.2500 kg/ha) | Preemergence herbicidal rating GLXMAW ([5]; rate 0.0156 kg/ha) | Herbicidal rating SAGPY ([6]; 0.0313 kg/ha) | Herbicidal rating SAGPY ([6]; 0.0625 kg/ha) | Herbicidal rating SAGPY ([6]; 0.1250 kg/ha) | Preemergence herbicidal rating CASOB (CASOB (Sicklepod); rate 0.0156 kg/ha) | Preemergence herbicidal rating CASOB (CASOB (Sicklepod); rate 0.0313 kg/ha) | Preemergence herbicidal rating CASOB (CASOB (Sicklepod); rate 0.0625 kg/ha)
8.0: Preemergence herbicidal rating AMBEL (AMBEL (Ragweed, Common) [2]; rate 0.2500 kg/ha) | Postemergence herbicidal rating ZEAMX (ZEAMX (Corn, Field); Rate 0.0315 kg/ha) | Postemergence herbicidal rating GLXMAW ([7]; Rate 0.0158 kg/ha) | Postemergence herbicidal rating GLXMAW ([7]; Rate 0.0315 kg/ha)
9.0: Postemergence herbicidal rating IPOHE ([1]; Rate 0.0158 kg/ha) | Postemergence herbicidal rating IPOHE ([1]; Rate 0.0315 kg/ha) | Postemergence herbicidal rating IPOHE ([1]; Rate 0.0630 kg/ha) | Preemergence herbicidal rating AMBEL (AMBEL (Ragweed, Common) [2]; rate 0.1250 kg/ha) | Preemergence herbicidal rating ABUTH (ABUTH (Velvetleaf); rate 0.0313 kg/ha) | Preemergence herbicidal rating ABUTH (ABUTH (Velvetleaf); rate 0.0625 kg/ha) | Preemergence herbicidal rating ABUTH (ABUTH (Velvetleaf); rate 0.1250 kg/ha) | Preemergence herbicidal rating ABUTH (ABUTH (Velvetleaf); rate 0.2500 kg/ha) | Preemergence herbicidal rating SETVI (SETVI (Foxtail, Green); rate 0.2500 kg/ha) | Postemergence herbicidal rating AMBEL (AMBEL (Ragweed, Common) [4]; Rate 0.0158 kg/ha) | Postemergence herbicidal rating AMBEL (AMBEL (Ragweed, Common) [4]; Rate 0.0315 kg/ha) | Postemergence herbicidal rating AMBEL (AMBEL (Ragweed, Common) [4]; Rate 0.0630 kg/ha) | Preemergence herbicidal rating CASOB (CASOB (Sicklepod); rate 0.1250 kg/ha) | Preemergence herbicidal rating CASOB (CASOB (Sicklepod); rate 0.2500 kg/ha) | Postemergence herbicidal rating GLXMAW ([7]; Rate 0.0630 kg/ha)
3.0: Herbicidal rating ECHORC ([3]; rate 0.0313 kg/ha, 3-4 weeks after treatment) | Preemergence herbicidal rating GLXMAW ([5]; rate 0.0625 kg/ha)
4.0: Herbicidal rating ECHORC ([3]; rate 0.0625 kg/ha, 3-4 weeks after treatment)
1.0: Preemergence herbicidal rating AMBEL (AMBEL (Ragweed, Common) [2]; rate 0.0313 kg/ha) | Preemergence herbicidal rating SETVI (SETVI (Foxtail, Green); rate 0.0625 kg/ha) | Preemergence herbicidal rating SETVI (SETVI (Foxtail, Green); rate 0.1250 kg/ha) | Preemergence herbicidal rating GLXMAW ([5]; rate 0.0313 kg/ha)
6.0: Herbicidal rating ECHORC ([3]; rate 0.1250 kg/ha, 3-4 weeks after treatment) | Preemergence herbicidal rating GLXMAW ([5]; rate 0.2500 kg/ha) | Herbicidal rating SAGPY ([6]; 0.2500 kg/ha)
2.0: Preemergence herbicidal rating AMBEL (AMBEL (Ragweed, Common) [2]; rate 0.0625 kg/ha) | Preemergence herbicidal rating ECHCG (ECHCG (Barnyardgrass); rate 0.2500 kg/ha) | Herbicidal rating CYPSE (CYPSE (Flatsedge); 0.1250 kg/ha) | Preemergence herbicidal rating GLXMAW ([5]; rate 0.1250 kg/ha)
7.0: Preemergence herbicidal rating ABUTH (ABUTH (Velvetleaf); rate 0.0156 kg/ha) | Postemergence herbicidal rating ZEAMX (ZEAMX (Corn, Field); Rate 0.0158 kg/ha) | Herbicidal rating ECHORC ([3]; rate 0.2500 kg/ha, 3-4 weeks after treatment) | Herbicidal rating CYPSE (CYPSE (Flatsedge); 0.2500 kg/ha)
